# Source: ChEMBL document CHEMBL5465560, “Selectivity Literature for EUbOPEN Chemogenomic Library” (2024)
# How the values were obtained:
# [1] = biological target: T1, Tyrosine-protein kinase Tec (Homo sapiens) (UniProt P42680); assay: Selectivity interaction (KinomeScan (DiscoverX)) EUB0000092b TEC; conditions: at 10 µM
# T1 sequence (whole entry): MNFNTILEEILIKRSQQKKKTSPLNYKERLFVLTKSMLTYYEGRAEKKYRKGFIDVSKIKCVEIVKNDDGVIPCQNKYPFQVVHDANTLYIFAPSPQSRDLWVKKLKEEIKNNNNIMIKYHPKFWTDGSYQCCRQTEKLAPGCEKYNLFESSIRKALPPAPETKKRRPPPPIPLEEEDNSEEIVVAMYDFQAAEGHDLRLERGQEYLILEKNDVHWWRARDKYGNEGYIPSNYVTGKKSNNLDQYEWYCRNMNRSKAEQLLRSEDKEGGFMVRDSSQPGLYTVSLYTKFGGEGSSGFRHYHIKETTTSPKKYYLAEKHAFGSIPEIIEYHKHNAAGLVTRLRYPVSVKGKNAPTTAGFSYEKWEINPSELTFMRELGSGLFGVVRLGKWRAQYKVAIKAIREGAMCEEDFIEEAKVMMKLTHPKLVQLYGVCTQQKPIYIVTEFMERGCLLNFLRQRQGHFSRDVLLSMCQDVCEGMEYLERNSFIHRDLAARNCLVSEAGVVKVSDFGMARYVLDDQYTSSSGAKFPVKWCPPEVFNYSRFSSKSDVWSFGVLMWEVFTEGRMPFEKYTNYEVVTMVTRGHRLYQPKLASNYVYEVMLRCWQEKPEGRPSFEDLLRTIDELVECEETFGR
# [2] = biological target: Bromodomain-containing protein 4 (Homo sapiens, UniProt O60885); assay: Selectivity interaction (Kinase panel (DSF assay)) EUB0001559a BRD4
# [3] = biological target: Calcium/calmodulin-dependent protein kinase type II subunit delta (Homo sapiens) (UniProt Q13557); conditions: at 10 µM
# Calcium/calmodulin-dependent protein kinase type II subunit delta (Homo sapiens), sequence (Q13557 whole entry): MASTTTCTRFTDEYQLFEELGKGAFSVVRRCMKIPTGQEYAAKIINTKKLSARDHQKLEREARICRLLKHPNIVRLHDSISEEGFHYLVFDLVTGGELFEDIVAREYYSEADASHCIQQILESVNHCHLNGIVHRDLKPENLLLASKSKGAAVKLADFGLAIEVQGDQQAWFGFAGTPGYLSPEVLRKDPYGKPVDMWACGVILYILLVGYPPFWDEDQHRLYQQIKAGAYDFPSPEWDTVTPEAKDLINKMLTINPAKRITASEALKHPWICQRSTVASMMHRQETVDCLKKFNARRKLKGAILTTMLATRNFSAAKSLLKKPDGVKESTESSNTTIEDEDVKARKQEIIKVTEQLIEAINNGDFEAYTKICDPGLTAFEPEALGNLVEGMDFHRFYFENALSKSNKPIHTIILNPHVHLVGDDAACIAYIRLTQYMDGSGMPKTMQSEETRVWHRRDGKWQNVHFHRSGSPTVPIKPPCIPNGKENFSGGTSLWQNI
# [4] = biological target: MAP kinase-interacting serine/threonine-protein kinase 1 (Homo sapiens) (UniProt Q9BUB5); conditions: at 10 µM
# MAP kinase-interacting serine/threonine-protein kinase 1 (Homo sapiens), sequence (Q9BUB5 whole entry, looked up): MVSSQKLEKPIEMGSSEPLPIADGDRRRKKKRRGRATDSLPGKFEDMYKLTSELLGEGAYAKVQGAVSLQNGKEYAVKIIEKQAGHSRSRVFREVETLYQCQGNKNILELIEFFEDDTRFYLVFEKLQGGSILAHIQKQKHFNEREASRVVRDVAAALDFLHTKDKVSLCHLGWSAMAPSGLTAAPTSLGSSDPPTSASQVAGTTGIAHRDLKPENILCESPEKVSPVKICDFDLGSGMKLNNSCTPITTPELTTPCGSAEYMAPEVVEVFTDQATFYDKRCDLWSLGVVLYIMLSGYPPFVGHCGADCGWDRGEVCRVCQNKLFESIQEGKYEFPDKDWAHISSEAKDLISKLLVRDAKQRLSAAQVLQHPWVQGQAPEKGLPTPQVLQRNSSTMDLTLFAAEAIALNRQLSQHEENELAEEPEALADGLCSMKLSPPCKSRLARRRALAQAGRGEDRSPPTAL
# [5] = biological target: T2, Serine/threonine-protein kinase 3 (Homo sapiens) (UniProt Q13188); assay: Selectivity interaction (Kinase panel (Z-LYTE Assay)) EUB0001632a STK3; conditions: at 10 µM
# T2 sequence (whole entry): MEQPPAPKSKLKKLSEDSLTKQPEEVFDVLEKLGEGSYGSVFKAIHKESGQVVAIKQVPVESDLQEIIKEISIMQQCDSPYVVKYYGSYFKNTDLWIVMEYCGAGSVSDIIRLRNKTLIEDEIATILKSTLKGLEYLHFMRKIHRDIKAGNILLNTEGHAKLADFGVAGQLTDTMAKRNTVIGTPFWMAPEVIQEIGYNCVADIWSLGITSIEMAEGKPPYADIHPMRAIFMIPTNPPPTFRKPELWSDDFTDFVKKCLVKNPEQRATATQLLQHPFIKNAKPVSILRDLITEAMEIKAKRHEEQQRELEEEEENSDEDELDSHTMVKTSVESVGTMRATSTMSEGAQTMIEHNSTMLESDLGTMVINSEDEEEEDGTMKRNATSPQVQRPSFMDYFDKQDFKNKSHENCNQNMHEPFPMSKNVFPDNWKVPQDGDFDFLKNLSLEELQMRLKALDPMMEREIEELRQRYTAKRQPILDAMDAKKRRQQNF
# [6] = biological target: T3, Serine/threonine-protein kinase TAO3 (Homo sapiens) (UniProt Q9H2K8); assay: Selectivity interaction (LanthaScreen Eu Kinase Binding Assay) EUB0001632a TAOK3; conditions: at 10 µM
# T3 sequence (whole entry): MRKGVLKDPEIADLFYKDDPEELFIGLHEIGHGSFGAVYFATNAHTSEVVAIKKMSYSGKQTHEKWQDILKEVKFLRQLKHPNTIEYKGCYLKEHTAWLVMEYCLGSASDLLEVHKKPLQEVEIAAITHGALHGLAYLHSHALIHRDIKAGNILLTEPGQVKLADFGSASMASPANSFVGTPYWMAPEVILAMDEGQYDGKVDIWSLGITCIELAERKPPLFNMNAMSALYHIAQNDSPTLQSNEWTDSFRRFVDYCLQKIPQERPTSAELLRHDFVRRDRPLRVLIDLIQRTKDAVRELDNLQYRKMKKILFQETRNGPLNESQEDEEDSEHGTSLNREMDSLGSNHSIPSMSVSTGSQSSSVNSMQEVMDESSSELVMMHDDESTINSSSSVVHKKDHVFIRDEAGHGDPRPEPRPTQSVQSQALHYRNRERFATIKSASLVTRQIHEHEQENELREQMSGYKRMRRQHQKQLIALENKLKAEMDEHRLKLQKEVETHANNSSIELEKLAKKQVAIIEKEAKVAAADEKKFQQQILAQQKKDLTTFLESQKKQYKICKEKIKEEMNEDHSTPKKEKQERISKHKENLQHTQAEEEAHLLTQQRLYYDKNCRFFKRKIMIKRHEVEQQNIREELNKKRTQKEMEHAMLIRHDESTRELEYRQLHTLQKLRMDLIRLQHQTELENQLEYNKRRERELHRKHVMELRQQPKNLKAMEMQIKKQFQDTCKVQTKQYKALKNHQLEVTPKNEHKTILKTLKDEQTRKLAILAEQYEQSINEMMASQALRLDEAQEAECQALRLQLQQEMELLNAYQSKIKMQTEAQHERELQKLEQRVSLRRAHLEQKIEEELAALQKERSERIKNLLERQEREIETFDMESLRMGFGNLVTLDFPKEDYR
# [7] = biological target: Tyrosine-protein kinase JAK1 (Homo sapiens, UniProt P23458); assay: Selectivity interaction (ActivX KiNativ screen (kinase selectivity in THP-1 cell lysates)) EUB0000639a JAK1; type: subcellular; conditions: lysate, at 1 µM
# Tyrosine-protein kinase JAK1, sequence (P23458 whole entry): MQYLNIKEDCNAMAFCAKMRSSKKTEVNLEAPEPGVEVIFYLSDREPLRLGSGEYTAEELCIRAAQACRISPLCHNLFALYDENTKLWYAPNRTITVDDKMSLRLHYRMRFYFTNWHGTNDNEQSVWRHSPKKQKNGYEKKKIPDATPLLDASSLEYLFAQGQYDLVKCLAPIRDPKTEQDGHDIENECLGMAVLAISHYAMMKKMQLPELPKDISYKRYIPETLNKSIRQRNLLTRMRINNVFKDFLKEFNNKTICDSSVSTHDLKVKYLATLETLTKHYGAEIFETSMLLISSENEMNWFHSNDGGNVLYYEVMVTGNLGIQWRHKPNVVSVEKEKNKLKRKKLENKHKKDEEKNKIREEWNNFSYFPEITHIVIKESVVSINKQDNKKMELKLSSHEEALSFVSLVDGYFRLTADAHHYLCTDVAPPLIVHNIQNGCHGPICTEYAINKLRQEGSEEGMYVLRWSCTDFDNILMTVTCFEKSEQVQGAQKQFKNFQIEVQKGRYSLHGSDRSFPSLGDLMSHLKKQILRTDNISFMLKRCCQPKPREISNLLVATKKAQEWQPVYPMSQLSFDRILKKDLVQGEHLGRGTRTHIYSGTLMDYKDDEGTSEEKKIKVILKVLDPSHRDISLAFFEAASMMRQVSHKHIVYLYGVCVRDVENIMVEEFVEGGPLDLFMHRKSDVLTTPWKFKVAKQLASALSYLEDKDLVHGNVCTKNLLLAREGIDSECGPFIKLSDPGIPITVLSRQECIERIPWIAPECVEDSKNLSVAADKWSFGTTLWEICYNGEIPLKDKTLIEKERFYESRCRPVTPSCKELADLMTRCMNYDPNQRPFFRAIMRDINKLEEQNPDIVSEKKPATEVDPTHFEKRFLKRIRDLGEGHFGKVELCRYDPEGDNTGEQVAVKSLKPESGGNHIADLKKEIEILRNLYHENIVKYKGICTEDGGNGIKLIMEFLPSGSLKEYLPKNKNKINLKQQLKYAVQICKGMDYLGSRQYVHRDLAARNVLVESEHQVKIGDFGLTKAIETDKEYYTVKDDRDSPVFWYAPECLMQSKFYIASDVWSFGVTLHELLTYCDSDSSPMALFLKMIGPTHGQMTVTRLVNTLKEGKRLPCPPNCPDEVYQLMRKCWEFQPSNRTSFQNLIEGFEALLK
# [8] = biological target: Dual specificity mitogen-activated protein kinase kinase 2 (Homo sapiens) (UniProt P36507); assay: Selectivity interaction (Kinase panel (Invitrogen)) EUB0000639a MAP2K2; conditions: at 200 nM
# Dual specificity mitogen-activated protein kinase kinase 2 (Homo sapiens), sequence (P36507 whole entry): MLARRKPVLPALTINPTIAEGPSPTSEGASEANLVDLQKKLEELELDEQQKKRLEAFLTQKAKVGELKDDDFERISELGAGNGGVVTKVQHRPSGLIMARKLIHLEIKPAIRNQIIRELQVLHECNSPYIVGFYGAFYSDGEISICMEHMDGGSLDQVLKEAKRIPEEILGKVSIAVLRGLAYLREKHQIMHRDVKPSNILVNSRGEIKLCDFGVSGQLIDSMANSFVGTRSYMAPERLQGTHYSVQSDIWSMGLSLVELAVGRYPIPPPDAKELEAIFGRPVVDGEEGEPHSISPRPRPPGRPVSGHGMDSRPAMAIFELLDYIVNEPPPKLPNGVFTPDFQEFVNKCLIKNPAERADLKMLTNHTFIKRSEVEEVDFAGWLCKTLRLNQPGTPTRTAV
# [9] = biological target: Cyclin-dependent kinase 16 (Homo sapiens) (UniProt Q00536); assay: Selectivity interaction (ActivX KiNativ screen (kinase selectivity in THP-1 cell lysates)) EUB0000639a CDK16; type: subcellular; conditions: lysate, at 0.2 µM
# Cyclin-dependent kinase 16 (Homo sapiens), sequence (Q00536 whole entry): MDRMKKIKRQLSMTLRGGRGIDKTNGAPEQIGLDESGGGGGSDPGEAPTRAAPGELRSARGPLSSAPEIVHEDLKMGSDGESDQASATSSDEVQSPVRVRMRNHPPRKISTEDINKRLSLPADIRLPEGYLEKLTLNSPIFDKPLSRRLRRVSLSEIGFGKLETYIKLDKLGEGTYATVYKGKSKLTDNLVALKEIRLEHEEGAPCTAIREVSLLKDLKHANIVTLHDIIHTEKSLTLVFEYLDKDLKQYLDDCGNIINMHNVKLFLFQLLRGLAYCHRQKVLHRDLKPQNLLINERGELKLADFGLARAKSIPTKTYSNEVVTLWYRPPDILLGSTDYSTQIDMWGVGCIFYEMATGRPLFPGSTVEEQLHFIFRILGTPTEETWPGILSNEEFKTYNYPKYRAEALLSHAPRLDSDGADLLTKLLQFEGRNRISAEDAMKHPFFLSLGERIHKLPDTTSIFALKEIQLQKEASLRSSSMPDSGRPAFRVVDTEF
# [10] = biological target: MAP kinase-interacting serine/threonine-protein kinase 2 (Homo sapiens, UniProt Q9HBH9); assay: Selectivity interaction (KinomeScan (DiscoverX)) EUB0000595a MKNK2; conditions: at 10 µM
# MAP kinase-interacting serine/threonine-protein kinase 2, sequence (Q9HBH9 whole entry, looked up): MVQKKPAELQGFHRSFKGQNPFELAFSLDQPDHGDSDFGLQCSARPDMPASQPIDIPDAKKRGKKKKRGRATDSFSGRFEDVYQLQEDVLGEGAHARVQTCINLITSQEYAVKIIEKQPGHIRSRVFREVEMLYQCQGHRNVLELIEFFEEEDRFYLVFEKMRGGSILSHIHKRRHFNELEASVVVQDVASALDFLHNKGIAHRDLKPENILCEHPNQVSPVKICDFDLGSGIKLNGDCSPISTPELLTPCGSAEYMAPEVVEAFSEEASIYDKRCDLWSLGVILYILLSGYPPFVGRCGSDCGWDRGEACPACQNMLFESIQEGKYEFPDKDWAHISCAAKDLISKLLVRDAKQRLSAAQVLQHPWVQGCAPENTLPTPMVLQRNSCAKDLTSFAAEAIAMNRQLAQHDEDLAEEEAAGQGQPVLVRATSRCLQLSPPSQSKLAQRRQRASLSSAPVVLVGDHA
# [11] = biological target: Cyclin-dependent kinase 11B (Homo sapiens) (UniProt P21127); assay: Selectivity interaction (KinomeScan (DiscoverX)) EUB0000618a CDK11B; conditions: at 10 µM
# Cyclin-dependent kinase 11B (Homo sapiens), sequence (P21127 whole entry): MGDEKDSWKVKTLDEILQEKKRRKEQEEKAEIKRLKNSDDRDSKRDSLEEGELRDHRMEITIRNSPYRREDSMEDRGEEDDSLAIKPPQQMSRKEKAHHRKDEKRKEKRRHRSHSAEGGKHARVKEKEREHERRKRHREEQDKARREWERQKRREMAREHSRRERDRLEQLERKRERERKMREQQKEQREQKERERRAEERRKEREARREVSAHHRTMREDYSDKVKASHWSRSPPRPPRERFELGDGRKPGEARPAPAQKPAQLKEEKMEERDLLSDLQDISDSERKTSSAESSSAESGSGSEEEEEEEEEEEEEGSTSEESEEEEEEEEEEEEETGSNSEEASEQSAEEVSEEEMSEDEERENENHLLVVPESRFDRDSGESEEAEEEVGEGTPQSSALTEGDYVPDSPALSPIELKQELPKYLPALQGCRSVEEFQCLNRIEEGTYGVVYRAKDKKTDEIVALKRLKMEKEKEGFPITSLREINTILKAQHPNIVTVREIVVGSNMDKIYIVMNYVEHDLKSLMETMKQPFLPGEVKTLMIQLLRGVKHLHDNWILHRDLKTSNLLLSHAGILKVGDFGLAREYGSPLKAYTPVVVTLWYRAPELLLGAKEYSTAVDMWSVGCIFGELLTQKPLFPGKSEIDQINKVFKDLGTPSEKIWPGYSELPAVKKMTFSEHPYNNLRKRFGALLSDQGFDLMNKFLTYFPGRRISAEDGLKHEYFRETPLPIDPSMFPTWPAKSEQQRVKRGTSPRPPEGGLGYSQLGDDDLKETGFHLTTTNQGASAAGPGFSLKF
# [12] = biological target: RAC-beta serine/threonine-protein kinase (Homo sapiens) (UniProt P31751); assay: Selectivity interaction (Kinase screening (Nanosyn)) EUB0000604a AKT2
# RAC-beta serine/threonine-protein kinase (Homo sapiens), sequence (P31751 whole entry): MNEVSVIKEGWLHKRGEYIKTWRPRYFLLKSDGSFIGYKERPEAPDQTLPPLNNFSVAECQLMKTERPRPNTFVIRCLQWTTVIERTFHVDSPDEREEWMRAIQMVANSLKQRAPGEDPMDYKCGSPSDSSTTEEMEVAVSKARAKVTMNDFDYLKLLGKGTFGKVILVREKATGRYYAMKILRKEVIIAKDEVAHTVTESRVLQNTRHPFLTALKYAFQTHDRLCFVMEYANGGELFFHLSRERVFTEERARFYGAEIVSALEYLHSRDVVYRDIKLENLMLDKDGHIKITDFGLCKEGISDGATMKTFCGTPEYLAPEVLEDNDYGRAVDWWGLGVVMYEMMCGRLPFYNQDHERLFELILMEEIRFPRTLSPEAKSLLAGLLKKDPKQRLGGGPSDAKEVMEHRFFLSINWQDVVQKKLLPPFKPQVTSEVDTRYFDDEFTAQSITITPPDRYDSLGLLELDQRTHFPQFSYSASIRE
smiles,measurement,setting,value
CCC(=O)N1CCN(c2ccc(-n3c(=O)ccc4cnc5ccc(-c6cnc7ccccc7c6)cc5c43)cc2C(F)(F)F)CC1,% of control,[1],99%
CN(C(=O)c1cnn2cccnc12)c1cc2c(cc1N1CCOCC1)C(=O)N(C[C@@H](F)C(C)(C)O)C2,dTM,[2],-0.8 K
Cc1cc([C@@H](C)Nc2ccccc2C(=O)O)c2nc(N3CCOCC3)cc(=O)n2c1 [AZD-6482],% of control,[3],95%
same,% of control,[4],92%
Cn1cc(-n2cnc3c(NCc4nc5cc(Cl)c(Cl)cc5[nH]4)nc(N4CCOCC4)nc32)cn1,% of control,[5],0.418%
same,% of inhibition,[6],7.54%
CC[C@@H]1[C@H](F)C(=O)N[C@@H]1COc1nccc2cc(C(N)=O)c(OC)cc12 [ZIMLOVISERTIB],% of inhibition,[7],3.8%
same,% of inhibition,[8],5.73%
same,% of inhibition,[9],-0.8%
COCC(=O)NC/C=C/c1ccc2ncnc(Nc3ccc(Oc4ccc(C)nc4)c(C)c3)c2c1 [CP-724714],% of control,[10],1.4%
O[C@H]1CC[C@H](Nc2ncc3nc(Nc4c(F)cc(F)cc4F)n([C@H]4CCOC4)c3n2)CC1,% of control,[11],91%
Cc1cnc(Nc2ccc(F)cc2Cl)nc1-c1c[nH]c(C(=O)N[C@H](CO)c2cccc(Cl)c2)c1,% of inhibition,[12],0%
